In PubChem BioAssay (NCI):
Several values for one entry are separate records, joined by “and”; a condition that tells them apart may be missing. Equal entries are not always repeated.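 Briefly, cells in 96-well plates were exposed to five compound concentrations for 48 h, and endpoints were estimated by linear interpolation. Here, GI50 denotes the concentration required for 50% inhibition of growth. TGI denotes the concentration required for complete inhibition of growth.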

Legend:
Assay in all cases: NCI anticancer screen, dose series, 48 h
SR leukemia = test system: SR leukemia
RXF 393 renal = test system: RXF 393 renal
HL-60(TB) leukemia = test system: HL-60(TB) leukemia
SK-MEL-28 melanoma = test system: SK-MEL-28 melanoma
SK-MEL-2 melanoma = test system: SK-MEL-2 melanoma
SF-295 CNS = test system: SF-295 CNS
SW-620 colon = test system: SW-620 colon
KM12 colon = test system: KM12 colon
M14 melanoma = test system: M14 melanoma
SNB-75 CNS = test system: SNB-75 CNS

SMILES	GI50 (SR leukemia)	TGI (SR leukemia)	GI50 (RXF 393 renal)	TGI (RXF 393 renal)	GI50 (HL-60(TB) leukemia)	TGI (HL-60(TB) leukemia)	GI50 (SK-MEL-28 melanoma)	TGI (SK-MEL-28 melanoma)	GI50 (SK-MEL-2 melanoma)	TGI (SK-MEL-2 melanoma)	GI50 (SF-295 CNS)	TGI (SF-295 CNS)	GI50 (SW-620 colon)	TGI (SW-620 colon)	GI50 (KM12 colon)	TGI (KM12 colon)	GI50 (M14 melanoma)	TGI (M14 melanoma)	GI50 (SNB-75 CNS)	TGI (SNB-75 CNS)
CCCS(=O)(=O)Nc1ccc(F)c(C(=O)c2c[nH]c3ncc(-c4ccc(Cl)cc4)cc23)c1F	2.1 µM and 2.92 µM	13.9 µM and > 10 µM	1.89 µM and 3.53 µM	6.58 µM and > 10 µM	3.64 µM and > 10 µM	12.2 µM and > 10 µM	0.0369 µM and 0.0422 µM	2.98 µM and 0.696 µM	4.11 µM and 3.65 µM	14.7 µM and > 10 µM	2.62 µM and 3.17 µM	11.5 µM and > 10 µM	10 µM and > 8.98 µM	27.3 µM and > 10 µM	4.17 µM and 6.02 µM	16.8 µM and > 10 µM	0.0403 µM and 0.0413 µM	1.34 µM and 2.21 µM	2.48 µM and 2.38 µM	16.6 µM and > 10 µM
COc1ccc(N2CCN(C(=O)c3ccccc3Nc3ccnc(C(F)(F)F)c3)CC2)cc1	10.8 µM	> 100 µM	99.9 µM	> 100 µM	32.3 µM	> 100 µM	> 100 µM	> 100 µM	> 100 µM	> 100 µM	40.5 µM	> 100 µM	> 100 µM	> 100 µM	76.9 µM	> 100 µM	87.3 µM	> 100 µM	50.5 µM	> 100 µM
Cc1ccc(S(=O)(=O)N(/N=C(\N)Oc2ccc(Cl)cc2)C(=N)Oc2ccc(Cl)cc2)cc1	–	> 100 µM	–	> 100 µM	–	> 100 µM	–	> 100 µM	–	> 100 µM	–	> 100 µM	–	> 100 µM	–	> 100 µM	–	> 100 µM	–	> 100 µM
CN(C)c1ccc(/C=C2\C[C@H]3[C@@H]4CC=C5C[C@@H](N6CCCC6)CC[C@]5(C)[C@H]4CC[C@]3(C)[C@H]2O)cc1	3.04 µM	–	3.47 µM	2.65 µM and 12.3 µM	2.3 µM	2.31 µM and 4.86 µM	–	1.84 µM	2 µM	2.35 µM and 3.89 µM	8.18 µM	2.99 µM and 23.1 µM	–	3.69 µM	5.48 µM	10.7 µM and 50.9 µM	1.8 µM	1.45 µM and 3.63 µM	3.4 µM	3.01 µM and 14.9 µM
Cc1nc(C)c(C(=O)Nc2cccc3c2C(=O)NC3=O)cc1C(=O)Nc1cccc2c1C(=O)NC2=O	–	> 100 µM	–	> 100 µM	–	> 100 µM	–	> 100 µM	–	> 100 µM	–	> 100 µM	–	> 100 µM	–	> 100 µM	–	> 100 µM	–	> 100 µM
Cc1ccc(Cl)cc1Nc1nc(C(F)(F)F)ccc1C(=O)Nc1cccc(C(F)(F)F)c1	3.41 µM	30.3 µM	2.7 µM	7.92 µM	3.61 µM	10.5 µM	4.55 µM	18.3 µM	2.45 µM	6.58 µM	3.65 µM	18.4 µM	4.55 µM	19.1 µM	3.12 µM	12.8 µM	2.99 µM	10.3 µM	3.11 µM	12.3 µM
O=C(NCc1cccnc1)/C(=C\c1ccc(Br)cc1)S(=O)(=O)c1ccccc1	0.309 µM	2.36 µM	0.413 µM	1.42 µM	0.345 µM	2.05 µM	1.11 µM	2.55 µM	1.43 µM	3.03 µM	1.72 µM	3.24 µM	0.416 µM	1.85 µM	1.53 µM	3.47 µM	1.04 µM	2.86 µM	1.05 µM	2.34 µM
C=C1CCC2C3(C)COC(c4ccc(NC(C)=O)cc4)OC3CCC2(C)C1C/C=C1/C(=O)OCC1O (centres undefined)	2.33 µM	85.1 µM	46.9 µM	> 100 µM	2.93 µM	> 100 µM	> 100 µM	> 100 µM	8.12 µM	> 100 µM	1.55 µM	6.75 µM	64.3 µM	> 100 µM	5.07 µM	> 100 µM	> 100 µM	> 100 µM	> 100 µM	> 100 µM
N/C(=N\NS(=O)(=O)c1ccccc1)Oc1ccc(Cl)cc1	–	> 100 µM	–	58.1 µM	–	60.6 µM	–	> 100 µM	–	> 100 µM	–	> 100 µM	–	19.5 µM	–	> 100 µM	–	> 100 µM	–	> 100 µM
Cn1nc(C(F)(F)F)c(-c2ccc(Cl)c(C(F)(F)F)c2)c1-c1ccc(OCc2ccc(Cl)cc2)cc1O	2.06 µM	7.34 µM	1.41 µM	4.32 µM	1.4 µM	3.5 µM	1.88 µM	7.33 µM	1.41 µM	4.52 µM	1.64 µM	5.59 µM	1.84 µM	7.28 µM	1.6 µM	5.91 µM	1.81 µM	6.85 µM	1.45 µM	7.54 µM
CC(=O)Oc1ccc(OC(C)=O)c2ccccc12	3.19 µM	11.7 µM	7.57 µM	20.2 µM	2.72 µM	7.87 µM	13.3 µM	26.5 µM	12.8 µM	27 µM	20.9 µM	> 100 µM	13.8 µM	33.2 µM	10.9 µM	23.4 µM	16.1 µM	30.4 µM	14 µM	27.7 µM
COc1ccc(-c2ccc(/C=C/C(=O)NO)cc2)cc1	0.378 µM	> 20.6 µM	0.554 µM	3.03 µM	0.269 µM	–	2.45 µM	13 µM	5.11 µM	37.6 µM	0.23 µM	2.01 µM	0.754 µM	> 100 µM	1.11 µM	> 100 µM	1.45 µM	7.64 µM	1.38 µM	5.06 µM
O=C1NC(=O)/C(=C/C=C/c2ccccc2)S1	0.597 µM	> 86.5 µM	4.95 µM	27.8 µM	1.27 µM	9.58 µM	15.5 µM	36 µM	24.4 µM	> 79.3 µM	0.576 µM	6.35 µM	11.2 µM	> 59.1 µM	8.25 µM	21.8 µM	2.1 µM	> 20.6 µM	5.25 µM	40.3 µM
CC1(C)N=C(N)N=C(N)N1c1cccc(C#N)c1	4.36 µM	> 100 µM	4.33 µM	> 100 µM	3.46 µM	> 100 µM	48.8 µM	> 100 µM	8.99 µM	> 100 µM	2.05 µM	24.1 µM	0.567 µM	> 100 µM	7.37 µM	> 100 µM	0.696 µM	> 100 µM	9.03 µM	> 100 µM
Nc1ncnc2c1c(C(F)(F)F)cn2[C@@H]1O[C@H](CO)[C@@H](O)[C@H]1O	0.341 µM	–	0.237 µM	1.67 µM	0.212 µM	0.492 µM	1.29 µM	6.13 µM	0.953 µM	2.79 µM	0.442 µM	> 23.3 µM	0.0644 µM	> 100 µM	0.134 µM	–	0.0419 µM	1.91 µM	0.708 µM	3.62 µM
